Results: ChEMBL document CHEMBL1151006, “Synthesis of bicyclic thiazolidine PAF antagonists” (Bioorg Med Chem Lett, 1993)

Assay: Half life in rats after intravenous administration
Type: ADME, organism-based
Conditions: rat, in vivo

half-life | SMILES
60 min | O=C(c1ccccc1)c1cccc(NC(=O)[C@@H]2CSC(c3cccnc3)N2)c1 (some centres not stated)
42 min | O=C(c1ccccc1)c1cccc(NC(=O)[C@H]2OC(=O)N3[C@@H](c4cccnc4)SC[C@@H]23)c1
